Measurements reported in US20190031618A1, “BENZIMIDAZOLE DERIVATIVES USEFUL AS CB-1 INVERSE AGONISTS” (Janssen Pharmaceutica NV, priority 2015, published 2019).
pEC50: −log10 of the molar value.

How the values were obtained:
[1] = molecular target: Human CB1R (Cannabinoid receptor 1) (Homo sapiens, UniProt P21554); assay: CB-1 in vitro cAMP (HTRF) assay; assay type: cell-based; details: HEK cells, cAMP HTRF, 250 nM forskolin; mean where tested more than once; read-out: CB1 HEK_cAMP EC50
Text: (§1) CB1 and CB2 receptors are Gi-coupled GPCR. Activation of CB1 and CB2 receptors results in a decrease in cAMP production. An inverse agonist of the CB1 or CB2 receptor results in the opposite effect, an increase of cAMP production. The principle of this assay is based on HTRF® technology (Homogeneous Time-Resolved Fluorescence). The method is a competitive immunoassay between native cAMP produced by cells and the cAMP labeled with the fluorophore d2. The tracer binding is quantified by a Mab anti-cAMP labeled with Eu3+TBP-NHS Cryptate (supplied as part of the assay kit). The specific signal (i.e. energy transfer) is inversely proportional to the concentration of cAMP in the standard or sample.
Human CB1R (Cannabinoid receptor 1) was stably transfected in HEK-293 cells (DiscoveRx, cat: 93-0200C1). Human CB2R (Cannabinoid receptor 2) was stably transfected in HEK-293 cells (DiscoveRx, cat: 93-0201C1).
One day prior to experiments media was warmed to 37° C. and the cryo-stored cells were thawed in a 37° C. water bath. The cells were then added to media (10× volume) and the mixture was centrifuged at 1000 RPM for 5 min. The supernate was removed and the cells were re-suspended in media. A sample of the cell suspension was evaluated on a Cedex XS automated cell counter (Innovatis Systems) to determine viable cells/ml. Additional media was added to the cells to achieve a final cell density of 4E5 cells/mL. […] Cells were removed from Row P (location of cAMP standards). […] The cell plates were lidded and stored for 15 minutes in a hood, then transferred to an incubator (37° C., 5% CO2, 95% humidity) overnight.
Test compounds (60 μL, 10 mM) were added to Column 1 and 13 (A1 through N1 and A13 through L13). Test compounds were serially diluted 1/3 by transferring and mixing 20 μl sample with 40 μL DMSO.
DMSO (40 μL) was added to wells of 384 well V bottom polystyrene plate: O2 through O11, M14 through M23, N14 through N23, and O14 through O23. […] The control was serially diluted 1/3 by transferring and mixing 20 μl sample with 40 μL DMSO. This process resulted 11 doses per control, 10 mM to 0.5 μM.
Cells plated the day prior to the assay in clear bottom plates were viewed on an inverse microscope to ensure confluency in the range of 60-75%.
A FLEXDROP (Perkin Elmer) was cleaned with ethanol then water, and primed with Buffer 2. A 384 well V bottom polypropylene plate containing d2 labelled cAMP and a second 384 well V bottom polypropylene plate containing anti-cAMP was prepared (50 μl per well). Media as “dumped” from the cell plate and 30 μL Buffer 1 was added to each well using a Multidrop. The content of the cell plate was again “dumped” and 10 μL Buffer 2 was added to each well using a Flexdrop. […] The cell plate was mixed (Speed 6, Lab-Line Instruments Titer Plate Shaker) and centrifuged (1000 RPMs, 1 min). […] The cell plate was again mixed (speed 6) and centrifuged (1000 RPMs, 1 min). The cell plate was incubated for 30 minutes at room temperature (˜27° C.). The contents of row P were removed and the cAMP standard dilutions were added in duplicate to Row P (P1-12 and P13-24). After incubation, 6 μL d2 labelled cAMP and 6 μL of Anti-cAMP were added to all wells of the cell plate using a BioMek FX (Beckman Coulter). The cell plate was again mixed (speed 6) and centrifuged (1000 RPMs, 1 min) and was incubated for 60 minutes in the dark at room Temp (˜27° C.).
After this final incubation, the cell plate was read in HTRF mode (fluorescence at 665 nm and 620 nm) on an Envision plate Reader (Perkin Elmer). The Envision reader outputs a ratio of channel 1/channel 2 fluorescence×10,000 (Normalized signal (NS)). Amount of cAMP in nM was calculated for each well (based on NS) from a cAMP standard curve located on each plate (at P1-12 and P13-24). EC50 values were determined from a 4-point fit (Hill equation) of a single 11-point compound dosing. Hill slope was fixed at 1.0.

[2] = molecular target: Human CB2R (Cannabinoid receptor 2) (Homo sapiens, UniProt P34972); assay: CB-2 in vitro cAMP (HTRF) assay; assay type: cell-based; details: HEK cells, cAMP HTRF, 250 nM forskolin; mean where tested more than once; read-out: CB2 HEK_cAMP EC50
Text: as §1
Human CB1R (Cannabinoid receptor 1) was stably transfected in HEK-293 cells (DiscoveRx, cat: 93-0200C1). Human CB2R (Cannabinoid receptor 2) was stably transfected in HEK-293 cells (DiscoveRx, cat: 93-0201C1). Cell cultures were maintained in media: DMEM (Invitrogen Cat#12430-054) supplemented with 10% HI FBS (Invitrogen Cat#16140-071), 1% L-glutamine (Invitrogen Cat#25030-081), 0.2 mg/ml Hygromycin B (Invitrogen Cat#10687-010), 600 μg/mL G418 (Invitrogen Cat#10131-035), and 1× Penn/Strep (Invitrogen 15140-122). After cell expansion, aliquots were cryo-stored in media containing 5% DMSO (Pierce Cat#20684).
One day prior to experiments media was warmed to 37° C. and the cryo-stored cells were thawed in a 37° C. water bath. The cells were then added to media (10× volume) and the mixture was centrifuged at 1000 RPM for 5 min. The supernate was removed and the cells were re-suspended in media. A sample of the cell suspension was evaluated on a Cedex XS automated cell counter (Innovatis Systems) to determine viable cells/ml. Additional media was added to the cells to achieve a final cell density of 4E5 cells/mL. The cells were then plated into 384 well PDL white solid bottom plates (Greiner, Cat#781945) at 20 μL per well using a Multidrop (Thermo Scientific). Cells were removed from Row P (location of cAMP standards). Two columns of cells were plated into a clear bottom 384 well PDL coated plate (Greiner, Cat#781944) to view confluence the day of the assay. The cell plates were lidded and stored for 15 minutes in a hood, then transferred to an incubator (37° C., 5% CO2, 95% humidity) overnight.
DMSO was added to all wells of 384 well V bottom polystyrene plate (Greiner, Cat#781280) except to columns 1 and 13, rows O and P and wells M13-M23 and N13-N23. Test compounds (60 μL, 10 mM) were added to Column 1 and 13 (A1 through N1 and A13 through L13). Test compounds were serially diluted 1/3 by transferring and mixing 20 μl sample with 40 μL DMSO.
DMSO (40 μL) was added to wells of 384 well V bottom polystyrene plate: O2 through O11, M14 through M23, N14 through N23, and O14 through O23. AM630 (also known as [6-iodo-2-methyl-1-[2-(4-morpholinyl)ethyl]-1H-indol-3-yl](4-methoxyphenyl)-methanone, Cayman Chemical, Cat#10006974) (60 μL, 10 mM) was added to O1; and 1-(2,4-dichlorophenyl)-7-[(4-fluorophenyl)methylene]-4,5,6,7-tetrahydro-N-1-piperidinyl-1H-benzimidazole-3-carboxamide (60 μL, 10 mM) was added to N13. The control was serially diluted 1/3 by transferring and mixing 20 μl sample with 40 μL DMSO. This process resulted 11 doses per control, 10 mM to […].
Cells plated the day prior to the assay in clear bottom plates were viewed on an inverse microscope to ensure confluency in the range of 60-75%. […]

Human CB1R (Cannabinoid receptor 1), sequence (P21554 whole entry): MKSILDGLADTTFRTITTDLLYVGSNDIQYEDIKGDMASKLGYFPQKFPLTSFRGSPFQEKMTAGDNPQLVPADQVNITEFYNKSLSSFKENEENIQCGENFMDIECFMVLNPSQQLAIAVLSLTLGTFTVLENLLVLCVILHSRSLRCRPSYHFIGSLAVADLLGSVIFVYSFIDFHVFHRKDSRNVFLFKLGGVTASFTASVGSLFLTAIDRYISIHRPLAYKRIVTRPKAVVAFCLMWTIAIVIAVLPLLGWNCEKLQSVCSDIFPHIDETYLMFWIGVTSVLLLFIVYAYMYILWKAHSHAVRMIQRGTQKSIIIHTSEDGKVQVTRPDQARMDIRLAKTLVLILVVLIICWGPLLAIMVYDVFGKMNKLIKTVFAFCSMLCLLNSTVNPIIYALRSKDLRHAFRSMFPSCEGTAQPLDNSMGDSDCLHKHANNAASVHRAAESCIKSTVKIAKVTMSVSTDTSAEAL
Human CB2R (Cannabinoid receptor 2), sequence (P34972 whole entry): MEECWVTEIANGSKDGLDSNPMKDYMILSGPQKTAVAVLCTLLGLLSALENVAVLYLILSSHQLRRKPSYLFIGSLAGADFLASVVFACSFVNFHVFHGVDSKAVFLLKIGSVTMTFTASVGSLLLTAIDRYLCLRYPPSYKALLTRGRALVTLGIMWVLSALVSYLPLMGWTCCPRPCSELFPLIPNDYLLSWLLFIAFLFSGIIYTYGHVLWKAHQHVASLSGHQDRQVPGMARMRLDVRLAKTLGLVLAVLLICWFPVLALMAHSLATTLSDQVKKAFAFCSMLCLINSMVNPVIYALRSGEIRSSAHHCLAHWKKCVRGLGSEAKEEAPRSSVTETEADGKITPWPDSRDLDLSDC

pEC50 [1]	pEC50 [2]	Compound
7.53	< 5.00	OC(Cn1c(C2CC2)nc2ccc(C(c3ccc(Cl)cc3)c3ccc(Cl)cc3)cc21)c1ccccc1 (single isomer, unassigned) [Example 289]
7.31	5.82	CCc1nc2ccc(C(c3ccc(Cl)cc3)c3ccc(Cl)cc3)cc2n1CC(C)c1ccccc1 (single isomer, unassigned) [Example 312]
7.94	5.55	O=C(O)c1ccc(N2CCC(Cn3c(C4CC4)nc4ccc(C(c5ccc(Cl)cc5)c5ccc(Cl)cc5)cc43)CC2)cc1 [Example 1]
6.32	5.30	O=C(O)c1ccnc(N2CCC(Cn3c(C4CC4)nc4ccc(C(c5ccc(Cl)cc5)c5ccc(Cl)cc5)cc43)CC2)n1 [Example 2]
8.01	5.67	O=C(O)c1cnc(N2CCC(Cn3c(C4CC4)nc4ccc(C(c5ccc(Cl)cc5)c5ccc(Cl)cc5)cc43)CC2)nc1 [Example 4]
7.48	6.20	COC(=O)c1cnc(N2CCC(Cn3c(C4CC4)nc4ccc(C(c5ccc(Cl)cc5)c5ccc(Cl)cc5)cc43)CC2)nc1 [Example 5]
7.55	5.41	O=C(O)c1ccc(-c2cccc(CCn3c(C4CC4)nc4ccc(C(c5ccc(Cl)cc5)c5ccc(Cl)cc5)cc43)c2)s1 [Example 6]
7.57	5.12	Clc1ccc(C(c2ccc(Cl)cc2)c2ccc3nc(C4CC4)n(CCOc4cccc(Br)c4)c3c2)cc1 [Example 7]
7.47	7.11	O=C(O)c1ccc(-c2cccc(S(=O)(=O)NCCCn3c(C4CC4)nc4ccc(C(c5ccc(Cl)cc5)c5ccc(Cl)cc5)cc43)c2)cc1 [Example 8]
7.77	6.10	O=S(=O)(NCCCn1c(C2CC2)nc2ccc(C(c3ccc(Cl)cc3)c3ccc(Cl)cc3)cc21)c1cccc(Br)c1 [Example 9]
6.49	5.76	O=C(O)c1cccc(CN2CCC(Cn3c(C4CC4)nc4ccc(C(c5ccc(Cl)cc5)c5ccc(Cl)cc5)cc43)CC2)c1 [Example 10]
7.31	5.30	O=C(O)c1cccc(-c2cccc(CCn3c(C4CC4)nc4ccc(C(c5ccc(Cl)cc5)c5ccc(Cl)cc5)cc43)c2)c1 [Example 11]
< 5.00	< 5.00	O=C(O)C(c1ccc(Cl)cc1)(c1ccc(Cl)cc1)c1ccc2nc(C3CC3)n(CC3CCN(S(=O)(=O)C(F)(F)F)CC3)c2c1 [Example 12]
< 5.00	< 5.00	COC(=O)c1cccc(N2CCC(Cn3c(C4CC4)nc4ccc(C(c5ccc(Cl)cc5)c5ccc(Cl)cc5)cc43)CC2)c1 [Example 13]
7.77	< 5.00	COC(=O)C(c1ccc(Cl)cc1)(c1ccc(Cl)cc1)c1ccc2nc(C3CC3)n(CC3CCN(S(=O)(=O)C(F)(F)F)CC3)c2c1 [Example 14]
7.14	6.16	O=C(O)c1ccc(S(=O)(=O)N2CCC(Cn3c(C4CC4)nc4ccc(C(c5ccc(Cl)cc5)c5ccc(Cl)cc5)cc43)CC2)cc1 [Example 15]
6.76	6.16	O=C(O)c1cc(OCCn2c(C3CC3)nc3ccc(C(c4ccc(Cl)cc4)c4ccc(Cl)cc4)cc32)cc(C(F)(F)F)c1 [Example 16]
7.08	5.03	O=C(O)c1ccc(-c2cccc(CCn3c(C4CC4)nc4ccc(C(c5ccc(Cl)cc5)c5ccc(Cl)cc5)cc43)c2)cc1 [Example 17]
7.27	< 5.00	COC(=O)c1cc(OCCn2c(C3CC3)nc3ccc(C(c4ccc(Cl)cc4)c4ccc(Cl)cc4)cc32)cc(C(F)(F)F)c1 [Example 18]
7.81	< 5.00	Clc1ccc(C(c2ccc(Cl)cc2)c2ccc3nc(C4CC4)n(CCc4cccc(Br)c4)c3c2)cc1 [Example 20]
6.60	5.34	O=C(O)c1ccc(S(=O)(=O)N[C@H]2CC[C@H](n3c(C4CC4)nc4ccc(C(c5ccc(Cl)cc5)c5ccc(Cl)cc5)cc43)CC2)cc1 [Example 21]
7.05	5.82	O=C(O)c1cccc(S(=O)(=O)N[C@H]2CC[C@H](n3c(C4CC4)nc4ccc(C(c5ccc(Cl)cc5)c5ccc(Cl)cc5)cc43)CC2)c1 [Example 22]
6.74	5.73	O=C(O)c1cccc(OCCn2c(C3CC3)nc3ccc(C(c4ccc(Cl)cc4)c4ccc(Cl)cc4)cc32)c1 [Example 23]
5.71	5.14	O=C(O)c1cccc(-c2ccc(CCn3c(C4CC4)nc4ccc(C(c5ccc(Cl)cc5)c5ccc(Cl)cc5)cc43)cc2)c1 [Example 24]

Compound	pEC50 [1]	pEC50 [2]
CC(c1cccc(C(=O)O)c1)N1CCC(n2c(C3CC3)nc3ccc(C(c4ccc(Cl)cc4)c4ccc(Cl)cc4)cc32)CC1 (single isomer, unassigned) [Example 47]	8.62	4.77
CC(c1cccc(C(=O)O)c1)N1CCC(n2c(C3CC3)nc3ccc(C(c4ccc(Cl)cc4)c4ccc(Cl)cc4)cc32)CC1 (single isomer, unassigned) [Example 48]	8.52	5.42
